Measured values reported in patent publication US12329930B2, “Subarachnoid fluid management method and system” (EnClear Therapies, Inc., priority 2020, dated 2025).

Assay: Administration of methotrexate to a sheep via the CSF circuit; drug concentration measured with LC/MS in CSF, spinal cord and brain regions
Type: in vivo
Method: The inventors administered methotrexate to sheep using illustrative embodiments. An outline of the study is depicted by FIGS. 16A-16C. A sheep used for this experiment received the CSF circuit 10 of illustrative embodiments. Circulation was started at the same time that methotrexate was infused. Methotrexate was infused at a gradual rate of 2 mLs over 2 minutes and then recirculation from lumbar to ventricle was started at a rate of 0.2 mLs/min. Circulation continued after drug infusion was stopped for […]. At zero to three hours, the circulation rate was at 0.1 mL/min and from four to six hours, circulation was at 0.3 mL/min. The dose of methotrexate infused was 12 mg. Drug concentration was measured with LC/MS (liquid chromatography with the mass analysis capabilities of mass spectrometry) in the CSF, spinal cord, and multiple brain regions.
CSF levels of methotrexate were analyzed over time.
The x-axis of this graph is […].

With `CN(Cc1cnc2nc(N)nc(N)c2n1)c1ccc(C(=O)N[C@@H](CCC(=O)O)C(=O)O)cc1` [methotrexate] the “CSF levels of methotrexate, lumbar region” value (12 mg infused 2 mLs over 2 minutes, lumbar region where drug was infused, lumbar to ventricle circulation, LC/MS) was “very high”, the “CSF levels of methotrexate over time, lumbar region” value (12 mg, lumbar CSF samples, time course, LC/MS) was “a decline over time was measured except for an increase at 5 hours and then a subsequent decline” and the “methotrexate levels in brain and spinal cord tissue” value (12 mg, samples from twelve brain regions homogenized, all areas of the brain and spinal cord) was “good levels”. The “CSF levels of methotrexate, ventricular samples, initially” value (12 mg, ventricular CSF samples, initial time points, LC/MS) was “very low” and the “CSF levels of methotrexate over time, ventricular samples” value (12 mg, ventricular CSF samples, later time points, LC/MS) was “increased at 4 and 5 hours, before declining to a similar level as the lumbar samples”.
